This is an account of results in patent US12692221B2 (priority 2024, dated 2026).

As usually defined, the EC50 is the midpoint of the concentration-response curve. Broadly, the Emax is the maximal effect, on the per cent scale that the assay sets. The Papp A→B is how fast a substance crosses the layer from the apical side. A low value points to poor permeation. Usually Papp B→A stands for the apparent permeability from the basolateral to the apical side of a cell layer.

For one data set, the target named is T1, CCK1 (CCKA) (h) (Homo sapiens, UniProt P32238).
T1 construct: expressed in transfected cells; host or cells: CHO cells
T1 sequence (P32238 1-428): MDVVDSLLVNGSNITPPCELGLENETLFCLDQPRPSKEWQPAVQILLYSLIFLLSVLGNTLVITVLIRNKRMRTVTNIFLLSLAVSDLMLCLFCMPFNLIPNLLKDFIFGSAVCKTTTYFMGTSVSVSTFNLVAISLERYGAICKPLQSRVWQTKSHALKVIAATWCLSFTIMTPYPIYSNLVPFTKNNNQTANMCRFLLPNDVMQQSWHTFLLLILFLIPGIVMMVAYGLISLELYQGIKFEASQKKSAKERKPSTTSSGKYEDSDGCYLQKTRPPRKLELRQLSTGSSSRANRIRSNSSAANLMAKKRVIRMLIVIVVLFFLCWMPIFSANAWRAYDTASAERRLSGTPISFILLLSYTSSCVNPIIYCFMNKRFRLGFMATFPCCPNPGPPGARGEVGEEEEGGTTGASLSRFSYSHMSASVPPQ
The data set can be described thus: Radioligand binding CCK1 (CCKA) (h) (agonist radioligand), [^125I]CCK-8s, CHO cells. As to conditions: CCK1 (CCKA) (h) (agonist radiolig.). The method, then: Methods—Binding Assays: In vitro binding assays were performed using human recombinant receptors expressed in mammalian cell lines. Receptors were expressed in either HEK-293 or CHO cells depending on the target, and assay conditions (radioligand, concentration, nonspecific competitor, temperature, and incubation time) were optimized for each receptor. All assays were conducted in triplicate, and specific binding was quantified by scintillation counting as the detection method for each listed assay.
Specific binding was expressed as a percentage of control-specific binding, and percent inhibition was calculated using the formula in Ex. 8 above. Half-maximal inhibitory concentrations (IC50) were determined by non-linear regression analysis of the inhibition curves using the Hill equation (see Ex. 8). Inhibition constants (Ki) were calculated using the Cheng-Prusoff equation (see Ex. 8). KD values used in these calculations had been previously established for each receptor under the assay conditions (see Table 6). Data analysis was performed using software developed at Cerep and validated against SigmaPlot 4.0 for Windows.

A further data set deals with T2, PDE4D2(h) (Homo sapiens, UniProt Q08499).
T2 construct: host or cells: Sf9 cells
T2 sequence (Q08499 303-809 limits assumed): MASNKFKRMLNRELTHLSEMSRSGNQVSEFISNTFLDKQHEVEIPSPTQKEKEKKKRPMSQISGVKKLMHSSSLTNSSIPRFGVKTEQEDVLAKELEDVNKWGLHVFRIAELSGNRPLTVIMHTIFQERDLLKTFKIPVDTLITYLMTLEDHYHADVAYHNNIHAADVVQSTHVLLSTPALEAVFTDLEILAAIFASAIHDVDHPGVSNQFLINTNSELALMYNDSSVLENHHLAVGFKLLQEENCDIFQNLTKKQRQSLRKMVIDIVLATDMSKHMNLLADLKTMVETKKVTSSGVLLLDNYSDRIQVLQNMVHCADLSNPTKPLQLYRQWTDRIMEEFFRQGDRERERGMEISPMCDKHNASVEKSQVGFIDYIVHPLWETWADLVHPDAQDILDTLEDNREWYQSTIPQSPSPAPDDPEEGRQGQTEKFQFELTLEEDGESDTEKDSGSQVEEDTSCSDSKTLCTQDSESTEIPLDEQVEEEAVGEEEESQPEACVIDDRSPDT
Description: Enzyme assay PDE4D2(h), [3H]cAMP, scintillation counting. Format: biochemical. The method, then: Methods—Enzyme and Uptake Assays: In vitro enzyme and uptake assays were conducted by Eurofins Discovery using human recombinant enzymes expressed in various mammalian and insect cell lines. Enzymatic activity was measured using appropriate substrates or tracers under conditions optimized for each target, as detailed in Table 7. Reactions were incubated at room temperature for a defined duration and terminated according to established protocols. The measured components (either enzymatic products or remaining substrate) were quantified using fluorimetry, photometry, scintillation counting, or LANCE technology, depending on the assay. Assay-specific parameters, including substrate identity, cell line source, incubation time, and detection method, are provided in Table 7.
All measurements were performed in technical replicates to ensure reproducibility and data quality.
Results were expressed both as a percentage of control-specific activity and as percent inhibition of control-specific activity. Percent activity was calculated as (measured specific activity/control specific activity)×100, and percent inhibition as 100−[(measured specific activity/control specific activity)×100], based on values obtained in the presence of test compounds. IC50 and EC50 values, along with Hill coefficients (nH), were determined by nonlinear regression analysis of inhibition or concentration-response curves generated from mean replicate values. Hill curve fitting was performed as previously described using software developed at Cerep and validated against SigmaPlot® 4.0 for Windows® (© 1997 by SPSS Inc.).

The next data set has as its target 5-HT2A (Homo sapiens, UniProt P28223). The data set can be described thus: Calcium flux agonist assay, 293T cells. The following applies: for Emax: HEK-293T, calcium flux, 5-HT2A, normalized to maximum 5-HT response. The arrangement: expressed in transfected cells; host or cells: Human Embryonic Kidney (293T) cells, transient. Format: cell-based. A general note: Calcium flux is commonly read through the fluorescence of an indicator in the cells.

In the next data set the test system is MDR1. Description: MDR1-MDCKII bidirectional permeability assay. The class given is in vitro ADME, Canine. The following applies: dog; for recovery at 60 min / recovery at 40 min: MDCK-MDR1, pH 7.4; for recovery at 60 min / Papp A→B at 60 min: apical-to-basolateral; for recovery at 60 min: read-out: A-B Percent Recovery; for recovery at 40 min / Papp B→A at 40 min: basolateral-to-apical; for recovery at 40 min: read-out: B-A Percent Recovery; for Papp A→B at 60 min / Papp B→A at 40 min: MDCK-MDR1, HBSS pH 7.4, 37° C. The method, then:
Methods: In vitro permeability studies were performed using confluent monolayers of MDR1-transfected Madin-Darby Canine Kidney (MDR1-MDCKII) cells cultured under standard conditions. Cells were seeded onto permeable supports and maintained until they formed tight monolayers suitable for bidirectional transport studies. The assay was conducted at 37° C. using Hanks' balanced salt solution (HBSS) adjusted to pH 7.4 on both the apical and basolateral sides. For apical-to-basolateral (A-B) permeability, samples were collected at 0 and 60 minutes, whereas for basolateral-to-apical (B-A) permeability, samples were collected at 0 and 40 minutes. The concentration of each compound in the donor and receiver chambers was determined by HPLC-MS/MS, and all results were expressed in terms of peak area.
The apparent permeability coefficient (Papp) for each compound was calculated using the formula:
[formula] where VR was the volume of the receiver chamber, CR,end was the concentration of the compound in the receiver chamber at the final time point, At was the incubation time, and A was the surface area of the cell monolayer. The midpoint donor concentration (CD,mid) was calculated as the average of the donor concentrations at time 0 and the end time point, while CR,mid was calculated as one-half of CaR,end.
Compound recovery was also evaluated using the following formula:
[formula] where VD and VR were the volumes of the donor and receiver chambers, respectively, CD,end and CR,end were the compound concentrations at the final time point in their respective compartments, and CD0 was the initial concentration in the donor chamber. Monolayer integrity was assessed following the permeability assay using fluorescein as a paracellular marker compound. Fluorescein was added to the apical chamber and sampled in the basolateral chamber after incubation. […] Only data from wells that met this integrity threshold were included in the final analysis.

5-HT2A, sequence (P28223 whole entry, looked up): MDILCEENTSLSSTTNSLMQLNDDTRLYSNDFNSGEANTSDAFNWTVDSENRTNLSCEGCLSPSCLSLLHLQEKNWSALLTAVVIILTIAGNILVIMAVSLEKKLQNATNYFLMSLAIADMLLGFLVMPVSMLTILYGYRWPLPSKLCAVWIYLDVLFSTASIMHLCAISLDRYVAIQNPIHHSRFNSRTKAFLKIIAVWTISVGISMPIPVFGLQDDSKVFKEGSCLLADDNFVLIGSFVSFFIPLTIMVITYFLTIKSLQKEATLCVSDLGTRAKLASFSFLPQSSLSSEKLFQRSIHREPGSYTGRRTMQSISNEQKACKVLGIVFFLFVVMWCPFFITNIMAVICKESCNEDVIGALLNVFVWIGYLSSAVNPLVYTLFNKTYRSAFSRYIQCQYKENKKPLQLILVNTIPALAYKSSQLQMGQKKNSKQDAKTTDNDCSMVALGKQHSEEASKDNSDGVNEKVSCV

Take `COCc1cc(CCN)c(O)cc1CC(C)C` [2CiBu-2OH-5MM, 2-(2-aminoethyl)-5-isobutyl-4-(methoxymethyl)phenol]: the “Mean Percent Inhibition of Control Specific Binding” value (“Mean Percent Inhibition” below) is −0.1% on CCK1 (CCKA) (h) and 67.4% at PDE4D2(h). Further, on 5-HT2A, the EC50 is 0.0559 µM. On 5-HT2A, the maximal effect (Emax) was determined as 115%.
On to `COCCc1cc(CCN)c(OC)cc1Br` [Compound 2CB-5ME, reference compound], for which, on CCK1 (CCKA) (h), the “Mean Percent Inhibition” value is on record as 3.3%. Further, the “Mean Percent Inhibition” value at PDE4D2(h) is listed as −5.7%. Besides, in the data set on MDR1, the recovery at 60 min was 75%, the recovery at 40 min was found to be 79%, the Papp A→B at 60 min was 32.9 ×10⁻⁶ cm/s and the Papp B→A at 40 min was 13.8 ×10⁻⁶ cm/s.
As to `COCc1cc(CCN)c(OC)cc1Br` [Compound 2CB-5MM, 2-(4-bromo-2-methoxy-5-(methoxymethyl)phenyl)ethan-1-amine], the “Mean Percent Inhibition” value on CCK1 (CCKA) (h) is −11.5%. Also, at PDE4D2(h), the “Mean Percent Inhibition” value was −0.5%. In the data set on MDR1, the recovery at 60 min worked out at 78%, the recovery at 40 min came to 83%, the Papp A→B at 60 min was determined as 29.9 ×10⁻⁶ cm/s and the basolateral-to-apical permeability (Papp B→A) at 40 min amounted to 14.5 ×10⁻⁶ cm/s. At 5-HT2A, the EC50 worked out at 0.00068 µM and the maximum response (Emax) was found to be 114%.
Regarding `COCc1cc(CCN)c(OC)cc1CC(C)C` [Compound 2CiBu-5MM, 2-[4-isobutyl-2-methoxy-5-(methoxymethyl)phenyl]ethanamine], the “Mean Percent Inhibition” value at CCK1 (CCKA) (h) turned out to be 12.2%. The “Mean Percent Inhibition” value at PDE4D2(h) was determined as 3.0%. Also, in the data set with MDR1, the recovery at 60 min worked out at 76%, the recovery at 40 min amounted to 79%, the Papp A→B at 60 min is 24.8 ×10⁻⁶ cm/s and the Papp B→A at 40 min was determined as 13.3 ×10⁻⁶ cm/s. At 5-HT2A, the EC50 worked out at 0.0422 µM and the maximal effect (Emax) came out at 111%.
